Consider four molecules from patent US9447054B2, “Anticancer supplement agent including benzo[D]oxazol derivative as effective ingredient” (KOREA INSTITUTE OF RADIOLOGICAL & MEDICAL SCIENCES, priority 2014, dated 2016).

Data set [1] has as its system lung cancer cells (H1299). As to the kind of experiment: ROS production by DCF-DA staining and FACS, combined with irradiation. The format is cell-based. How it is done: The lung cancer cells (H1299) that were cultured in the same manner as in Example 1 were treated with dihydrodichlorofluorescein diacetate (DCF-DA, Sigma, USA) and were subjected to fluorescence staining. The stained cells were then treated with 2-(5-bromonaphthalene-1-yl)benzo[d]oxazole-5-amine (Derivative #1) for 2 hours in a concentration of 5 μM or 10 μM, and 5 Gy of irradiation. Afterwards, an increase in ROS production upon inhibition of Nrf2 was analyzed by FACS.
In addition, in order to confirmed whether the values measured by FACS analysis refer to the ROS production, the lung cancer cells (H1299) were treated with 2 mM of N-acetyl-L-cysteine (NAC), which is a ROS inhibitor, and then, were treated in combination with 2-(5-bromonaphthalene-1-yl)benzo[d]oxazole-5-amine (Derivative #1) in a concentration of 10 μM and irradiation. As a result, it was confirmed that the ROS production was inhibited.

A further data set concerns the target T1, Nrf2 protein (Homo sapiens, UniProt Q16236).
T1 construct: endogenous in cells
T1 sequence (Q16236 1-605): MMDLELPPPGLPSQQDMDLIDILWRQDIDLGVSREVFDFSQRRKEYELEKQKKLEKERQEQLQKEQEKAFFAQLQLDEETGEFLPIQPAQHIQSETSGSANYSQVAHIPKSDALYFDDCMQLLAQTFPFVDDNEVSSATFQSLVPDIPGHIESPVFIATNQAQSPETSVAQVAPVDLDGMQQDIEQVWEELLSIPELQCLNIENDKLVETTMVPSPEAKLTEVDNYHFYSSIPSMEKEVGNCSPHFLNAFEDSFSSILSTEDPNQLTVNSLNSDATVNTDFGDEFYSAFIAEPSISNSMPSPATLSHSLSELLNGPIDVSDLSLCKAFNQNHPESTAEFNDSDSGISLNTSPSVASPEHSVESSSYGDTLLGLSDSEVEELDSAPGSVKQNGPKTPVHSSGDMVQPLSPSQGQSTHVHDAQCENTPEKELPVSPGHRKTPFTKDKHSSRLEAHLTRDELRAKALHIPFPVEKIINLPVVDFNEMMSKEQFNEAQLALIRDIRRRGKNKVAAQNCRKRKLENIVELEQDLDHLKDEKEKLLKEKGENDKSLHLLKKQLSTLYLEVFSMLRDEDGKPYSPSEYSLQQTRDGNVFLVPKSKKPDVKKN
As to the kind of experiment: Western blot of Nrf2 protein in tBHQ-treated lung cancer cells. Format: cell-based. The conditions noted are these: 5 μM or 10 μM, 2 hours, FIG. 5. On the procedure:
(§1) By using a western blot, it was confirmed whether 2-(5-bromonaphthalene-1-yl)benzo[d]oxazole-5-amine (Derivative #1), which is a Nrf2 inhibitor, has targeted a Nrf2 protein and its downstream antioxidant enzyme heme oxygenase (HO)-1, based on the inhibitory activity of the ARE-pGL3 luciferase.
(§2) The lung cancer cells were treated with 2-(5-bromonaphthalene-1-yl)benzo[d]oxazole-5-amine (Derivative #1) in a concentration of about 5 μM or about 10 μM, and 2 hours later, the protein expression was analyzed to measure amounts of Nrf2 and HO-1 proteins, which were increased by tBHQ treatment.
(§3) First, the cells treated with 2-(5-bromonaphthalene-1-yl)benzo[d]oxazole-5-amine (Derivative #1) were obtained, and then, cytosolic fractions were obtained therefrom by using a method commonly used in the art.
(§4) The cytosolic fractions were separated by electrophoresis using 10% gradient SDS-PAGE, and then, were transferred to a nitrocellulose membrane (BioRad, Hercules, Calif., USA). The membrane was blocked with 5% skim milk, and then, a reaction with primary antibodies, e.g., anti-Nrf2 (Abcam, USA) and an HO-1 antibody (Oncogene Research Products, USA), was allowed. […]
A general note: Immunoblotting shows a protein as a band on a membrane.

For data set [2], the system named is brain cancer cells (U87MG). As to the kind of experiment: Colony-forming assay with gamma irradiation, brain cancer cells. Format: cell-based, human. As to conditions: 1 μM to 10 μM for 2 hours, gamma radiation, 7 days, FIG. 9. On the procedure:
(§5) Lung cancer cells (H1299, ATCC, CRL-5803™), brain cancer cells (U87MG, ATCC, HTB-14™ human glioblastoma), breast cancer cells (MDA-MB231, ATCC, HTB-26™ human breast adenocarcinoma), and colorectal cancer cells (HCT116, ATCC, CCL-247™ human colorectal carcinoma) were each inoculated in each well of a 96-well plate containing Rosewell Park Memorial Institute medium (RPMI) 1640 enriched with 10% FBS, 100 μg/ml of streptomycin, and 100 unit/ml of penicillin. Then, these cells were each treated with 2-(5-bromonaphthalene-1-yl)benzo[d]oxazole-5-amine (Derivative #1) for 2 hours in a concentration of 1 μM to 10 μM, were irradiated using gamma radiation according to radiation dose, and were cultured for 7 days under conditions of 5% CO2 and a temperature of 37° C. The cultured cells were washed out with phosphate buffered saline (PBS), and then, were stained with a mixture of 1% methylene blue and 100% methanol. Afterwards, a number of colony-forming cells was counted, and all the treatment above were repeatedly performed 3 times.

For data set [3], the system named is lung cancer cells (H1299). As to the kind of experiment: Colony-forming assay with gamma irradiation, lung cancer cells. Format: cell-based. The conditions noted are these: H1299, 1 μM to 10 μM for 2 hours, gamma radiation, 7 days, FIG. 8. On the procedure: as §5
Data set [4] concerns colorectal cancer cells (HCT116). As to the kind of experiment: Colony-forming assay with gamma irradiation, colorectal cancer cells. Format: cell-based, human. As to conditions: HCT116, 1 μM to 10 μM for 2 hours, gamma radiation, 7 days, FIG. 11. How it is done: as §5
For data set [5], the system named is lung cancer cells (H1299). Description: CCK-8 cell viability analysis (cytotoxicity of the derivative alone). The format is cell-based. The conditions noted are these: 1 μM, 5 μM and 10 μM, FIG. 2. An excerpt: Here, in order to confirm that the inhibitory activity of luciferase was caused by an Nrf2 inhibitor, rather than by apoptosis of the cells, cell counting kit-8 (CCK-8) (Dojindo, Japan) for the determination of cell viability and a spectroscopic device (Labsystems, USA) were used to measure absorbance values of the cells at a wavelength of 480 nm.
Here, in order to confirm that the inhibitory activity of luciferase was caused by Nrf2 inhibitors, i.e., Derivative #2 to #10, rather than by apoptosis of the cells, CCK-8 (Dojindo, Japan) for the determination of cell viability and a spectroscopic device (Labsystems, USA) were used to measure absorbance values of the cells at a wavelength of 480 nm.

A further data set concerns heme oxygenase (HO)-1. Description: Western blot of HO-1 protein in tBHQ-treated lung cancer cells. The format is cell-based. The conditions noted are these: 5 μM or 10 μM, 2 hours, FIG. 5. On the procedure: as §1, §2, §3, §4
Data set [6] deals with lung cancer cell strain (H1299). As to the kind of experiment: CCK-8 analysis after derivative plus doxorubicin (anticancer agent sensitivity). The format is cell-based. As to conditions: 48 hours, FIG. 13. How it is done:
In order to confirm whether the above-described benzo[d]oxazole derivative that increases the apoptotic effects of ROS also have such apoptotic effects when the benzo[d]oxazole derivative is used in combination with, other than radiation, an anticancer agent to produce ROS, the synthesized benzo[d]oxazole derivative was treated in combination with doxorubicin, which is an anticancer agent.
The lung cancer cell strain (H1299) was treated with each of the synthesized benzo[d]oxazole derivatives (Derivatives #1 to #10) for 2 hours in a concentration of 10 μM, and then, were treated with doxorubicin in a concentration of 150 nM. After 48 hours of the treatment, CCK-8 for the determination of cell viability was used to measure the lung cancer cells that were died by apoptosis.

In data set [7] the test system is breast cancer cells (MDA-MB231). Description: Colony-forming assay with gamma irradiation, breast cancer cells. The format is cell-based, human. The conditions noted are these: MDA-MB231, 1 μM to 10 μM for 2 hours, gamma radiation, 7 days, FIG. 10. On the procedure:
as §5

For the next data set, the system named is Nrf2. Description: ARE-pGL3 (Nrf2-responsive) luciferase reporter analysis in tBHQ-treated lung cancer cells. The format is cell-based. On the procedure:
Lung cancer cells (H1299) purchased from American Type Culture Collection (ATCC, CRL-5803™) were cultured in Dulbecco's modified Eagle's medium (DMEM) enriched with 10% fetal bovine serum (FBS), 100 μg/ml of streptomycin, and 100 unit/ml of penicillin, under conditions of 5% CO2 and a temperature of 37° C.
Then, the cells were transformed by using Lipofectamine 2000 (In vitrogen, Life technologies, USA) (i.e., a plasmid transfection reagent used in DMEM) so that an antioxidant response element (ARE)-pGL3 luciferase plasmid to which an Nrf2 transcription factor can bind was introduced to the cells, according to the manufacturer's instructions.
About 20,000 of the transformed cells were inoculated in each well of a 96-well plate, and then, the cells were cultured for 24 hours under the same conditions described above. Afterwards, tertiary butylhydroquinone (tBHQ) that activates ARE was added to each well. Accordingly, it was confirmed that activity of luciferase was increased at least about 3 times as large as activity of luciferase in cells that were not treated with tBHQ.
Next, the tBHQ-treated cells were additionally treated with 2-(5-bromonaphthalene-1-yl)benzo[d]oxazole-5-amine (ChemBridge, cat#5721754, San Diego, Calif., USA) (Derivative #1) in concentration of 1 μM, 5 μM, and 10 μM, and then, were incubated for 18 hours. […]
In general terms: In a reporter assay the amount or activity of a reporter protein is the signal.

Turning to `Nc1ccc2oc(-c3cccc4c(Br)cccc34)nc2c1` [Derivative #1, 2-(5-bromonaphthalene-1-yl)benzo[d]oxazole-5-amine], the “ROS production relative to 5 Gy of irradiation only” value is “about 3.5 times” in [1] (H1299, 5 μM for 2 hours plus 5 Gy irradiation) and about 4.6 times in [1] (H1299, 10 μM for 2 hours plus 5 Gy irradiation). Moreover, the “amount of Nrf2 protein increased by tBHQ treatment” value on Nrf2 protein was “reduced depending on the concentration”. The “apoptotic effects on cancer cells by irradiation (colony-forming cells)” value in data set [2], in [3], in data set [4] and in data set [7] was “increased apoptotic effects” throughout. Also, the “cytotoxicity (CCK-8 viability)” value in data set [5] is recorded as “no cytotoxicity”. Also, the “amount of HO-1 protein increased by tBHQ treatment” value in the data set with heme oxygenase (HO)-1 was “reduced depending on the concentration”. Moreover, the “apoptotic cell death relative to control group” value in [6] (H1299, derivative 10 μM for 2 hours then doxorubicin 150 nM) is listed as “about 3.7 times”. The “inhibitory activity of ARE-responsive luciferase” value in the data set on Nrf2 (tBHQ-treated H1299, 1 μM, 5 μM and 10 μM, 18 hours, FIG. 1) was “dependent upon concentration”.
For the molecule `CC(=O)N[C@@H](CS)C(=O)O` [NAC, N-acetyl-L-cysteine, reference compound], the “ROS production after ROS inhibitor treatment” value in data set [1] (H1299, 2 mM NAC, then Derivative #1 10 μM plus irradiation) is reported as “inhibited”.
Take `COc1cccc2c1C(=O)c1c(O)c3c(c(O)c1C2=O)C[C@@](O)(C(=O)CO)C[C@@H]3O[C@H]1C[C@H](N)[C@H](O)[C@H](C)O1` [doxorubicin, reference compound]: in [6] (H1299, doxorubicin 150 nM only), the “apoptotic cell death relative to control group” value is recorded as “about 1.35 times”.
As to `CC(C)(C)c1cc(O)ccc1O` [tBHQ, tertiary butylhydroquinone, reference compound], the “activity of luciferase relative to cells not treated with tBHQ” value with Nrf2 (ARE-pGL3 transformed H1299 cells, tBHQ added to each well) is reported as “at least 3 times”.
